The values that follow come from PMC4613240, “A Series of New Ligustrazine-Triterpenes Derivatives as Anti-Tumor Agents: Design, Synthesis, and Biological Evaluation” (International Journal of Molecular Sciences, 2015).

For series [1], the system named is Bel-7402 (human hepatocellular carcinoma). Description: MTT cytotoxicity assay, Bel-7402. The class given is cell-based. To be noted: Homo sapiens, Bel-7402, 72 h, maximal tested concentration 20.0 μM. As to the method: (§1) The cytotoxicity of ligustrazine-triterpenes derivatives was evaluated on five tumor cell lines (Bel-7402, HepG2, HT-29, Hela, and MCF-7) using the standard MTT assay. In the study, the antineoplastic drug cisplatin (DDP) was selected as the positive control. The MDCK cell line was used to test the toxicity of the ligustrazine-triterpenes derivatives and DDP.
(§2) The cell lines Bel-7402 (human hepatocellular carcinoma), HepG2 (human hepatocellular carcinoma), HT-29 (human colon carcinoma), Hela (human cervical cancer), MCF-7 (human breast cancer) were included in this study. All these cell lines were provided by the Chinese Academy of Medical Sciences & Peking Union Medical College. Cultures were maintained as monolayers in RPMI 1640 supplemented with 10% (v/v) heat inactivated fetal bovine serum and 1% (v/v) enicillin/streptomycin (Thermo Technologies, New York, NY, USA) at 37 °C in a humidified atmosphere with 5% CO2. The ligustrazine derivatives under study were dissolved in DMSO (Sigma, St. Louis, MO, USA) and added at required concentrations to the cell culture. Cells incubated without the preparations served as the control.
(§3) The cytotoxicity of the compounds was evaluated on five cancer cell lines (Bel-7402, HepG2, HT-29, Hela, MCF-7) by the standard MTT assay. In short, exponentially growing cells were seeded into 96-well plates at a density 10^4 cells/mL. The plates were incubated at 37 °C in a humidified 5% CO2 atmosphere. Cells were allowed to adhere to the surface for 24 h and then treated with serial dilutions of the compounds for 72 h. Later, aliquots of [3-(4,5-dimethylthiazol-2-yl)-2,5-diphenyltetrazolium bromide] (MTT) solution (20 μL, 5 mg/mL) were added to each well and the incubation was continued for an additional 4 h. Then the supernatant medium was thrown away. The dark blue formazan crystals formed within the healthy cells were solubilized with DMSO (150 μL) and the absorbance was measured in a plate reader (BIORAD 550 spectrophotometer, Bio-rad Life Science Development Ltd., Beijing, China) at 490 nm. Wells containing no drugs were used as control group. The IC50 values were defined as the concentration of compounds that produced a 50% reduction of surviving cells and calculated using Logit-method. Tumor cell growth inhibitory rate was calculated in the following Equation (1): % inhibition = (1 − Sample group OD/Control group OD) × 100% (1)

Series [2] relates to HT-29 (human colon carcinoma). Description: MTT cytotoxicity assay, HT-29. As to conditions: Homo sapiens, HT-29, 72 h, maximal tested concentration 20.0 μM. The class given is cell-based. As to the method:
as §1, §2, §3
On the technique in general: Tetrazolium assays rely on reduction of a dye to a coloured formazan, in cell work by metabolically active cells.

Series [3] concerns HepG2 (human hepatocellular carcinoma). Put plainly: MTT cytotoxicity assay, HepG2. Type of series: cell-based. As to conditions: Homo sapiens, HepG2, 72 h, 72 h, maximal tested concentration 20.0 μM. The protocol:
as §1, §2, §3

The subject of series [4] is MCF-7 (human breast cancer). Put plainly: MTT cytotoxicity assay, MCF-7. Type of series: cell-based. As to conditions: Homo sapiens, MCF7, 72 h, maximal tested concentration 20.0 μM. As to the method: as §1, §2, §3
Series [5] has as its system Hela (human cervical cancer). Description: MTT cytotoxicity assay, Hela. The class given is cell-based. To be noted: Homo sapiens, HeLa, 72 h, maximal tested concentration 20.0 μM. The protocol:
as §1, §2, §3

Series [6] deals with Madin-Darby canine kidney cell line (MDCK). Description: MTT cytotoxicity (nephrotoxicity/selectivity) assay, MDCK. Type of series: cell-based. To be noted: Canis lupus familiaris, maximal tested concentration 20.0 μM, toxicity to MDCK kidney cells.

For the compound `C=C(C)C1CCC2(C(=O)O)CCC3(C)C(CCC4C5(C)CCC(OC(=O)c6nc(C)c(C)nc6C)C(C)(C)C5CCC43C)C12` (stereo not drawn) [Compound 4d, 3β-Hydroxy-(3,5,6-trimethylpyrazin-2-carbonyl)-lup-20(29)-ene-28-oic acid], the melting point (commonly the temperature, or range, at which the solid turns liquid) was in the range of 279.5 to 280.3 °C. For the same compound, in series [1], half-maximal inhibition (IC50) required 13.3 µM. Further, in series [2], the half-inhibitory concentration (IC50) (as a rule, the point on the concentration scale where inhibition reaches its midpoint) is 8.38 µM. This compound had an IC50 in series [3] of 7.42 µM. Further, the IC50 in series [4] amounted to 6.22 µM. Further, half-maximal inhibition in series [5] (IC50) required 12.2 µM. In addition, the IC50 in series [6] was over 20 µM.

In the case of `C=C(C)[C@@H]1CC[C@]2(C(=O)OCc3nc(C)c(C)nc3C)CC[C@]3(C)C(CCC4[C@@]5(C)CC[C@H](OC(=O)c6nc(C)c(C)nc6C)C(C)(C)C5CC[C@]43C)C12` (stereo partly drawn) [Compound 4b, 3β-Hydroxy-(3,5,6-trimethylpyrazin-2-carbonyl)-lup-20(29)-ene-28-oic acid-3,5,6-trimethylpyrazin-2-methyl ester], the melting point was in the range of 142.1 to 142.9 °C. This compound registered a 50% inhibitory concentration (IC50) in series [1] of over 20 µM. The 50% inhibitory concentration (IC50) in series [2] was over 20 µM. Half-maximal inhibition in series [3] (IC50) required 13.2 µM. This compound displayed an IC50 in series [4] of 12.9 µM. In addition, the IC50 in series [5] is over 20 µM. This compound registered an IC50 in series [6] of over 20 µM.
